Measured values as given in ChEMBL document CHEMBL1127596, “Leukotriene B4 (LTB4) receptor antagonists: a series of (hydroxyphenyl)pyrazoles” (J Med Chem, 1994).

Target: Leukotriene B4 receptor 1 (Homo sapiens, UniProt Q15722)
Assay: Inhibition of [3H]Leukotriene B4 binding to human PMN

Sequence of Leukotriene B4 receptor 1 (Q15722 whole entry): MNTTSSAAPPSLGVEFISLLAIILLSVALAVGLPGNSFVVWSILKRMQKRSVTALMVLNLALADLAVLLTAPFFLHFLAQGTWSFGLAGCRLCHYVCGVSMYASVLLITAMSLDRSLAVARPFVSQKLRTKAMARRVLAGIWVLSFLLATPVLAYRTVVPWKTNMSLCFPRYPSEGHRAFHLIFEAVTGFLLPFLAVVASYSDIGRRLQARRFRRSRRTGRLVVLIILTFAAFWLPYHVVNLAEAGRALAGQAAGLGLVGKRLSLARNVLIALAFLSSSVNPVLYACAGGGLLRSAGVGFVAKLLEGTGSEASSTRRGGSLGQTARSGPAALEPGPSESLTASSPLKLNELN

IC50 | Compound
0.055 µM | CCc1cc(-c2cc[nH]n2)c(O)cc1OCCCCCOc1ccc(CC(=O)O)cc1
> 1 µM | O=C(O)CCc1cccc(OCCCOc2ccc(-c3cc[nH]n3)cc2)c1
0.012 µM | CCc1cc(-c2cc[nH]n2)c(O)cc1OCCCOc1ccccc1CC(=O)O
0.0093 µM | CCc1cc(-c2ccn(C)n2)c(O)cc1OCCCCCC(C)(C)c1nnn[nH]1
0.087 µM | CCc1cc(-c2cc[nH]n2)c(O)cc1OCCCOc1ccc(CCC(=O)O)cc1
0.738 µM | CCCc1ccc(CCC(=O)O)cc1OCCCOc1cc(O)c(-c2cc[nH]n2)cc1CC
0.011 µM | CCc1cc(-c2cc[nH]n2)c(O)cc1OCCCOc1cccc(CC(=O)O)c1
0.319 µM | CCCc1c(OCCCOc2cc(O)c(C(=O)/C=C/N(C)C)cc2CC)ccc2c1OC(C(=O)O)CC2 (stereo not given)
0.107 µM | CCc1cc(-c2ccnn2C)c(O)cc1OCCCCCC(C)(C)c1nnn[nH]1
0.834 µM | CCCc1c(CCC(=O)O)cccc1OCCCOc1cc(O)c(-c2cc[nH]n2)cc1CC
0.0057 µM | CCc1cc(-c2cc[nH]n2)c(O)cc1OCCCOc1cccc(CCC(=O)O)c1
0.0045 µM | CCCc1c(OCCCOc2cc(O)c(-c3cc[nH]n3)cc2CC)ccc2c1OC(C(=O)O)CC2 (stereo not given)
0.082 µM | CCc1cc(-c2cc[nH]n2)c(O)cc1OCCCCCOc1ccc(C(=O)O)cc1
0.028 µM | CCc1cc(-c2cc[nH]n2)c(O)cc1OCCCCCOc1ccc(CCC(=O)O)cc1
0.054 µM | CCc1cc(-c2ccn[nH]2)c(O)cc1OCCCOc1ccc(CC(=O)O)cc1
